We go through 1 compound from patent US20160008490A1, “METAL CHELATE COMPOUNDS FOR BINDING TO THE PLATELET SPECIFIC GLYCOPROTEIN IIB/IIIA” (BAYER PHARMA AKTIENGESELLSCHAFT, priority 2013, published 2016).

What is called IC50 is the midpoint of a concentration-inhibition curve.

In the experiment the target is T1, human GP IIb/IIIa receptor (Homo sapiens, UniProt P05106+P08514).
T1 construct: human GPIIb/IIIa purified from human platelets was immobilized on a 96-well solid plate; purchased Enzyme Research Laboratories Inc. (South Bend, Ind.); host or cells: human platelets (natural source, detergent-solubilised)
T1 sequence (P08514 32-887 limits assumed): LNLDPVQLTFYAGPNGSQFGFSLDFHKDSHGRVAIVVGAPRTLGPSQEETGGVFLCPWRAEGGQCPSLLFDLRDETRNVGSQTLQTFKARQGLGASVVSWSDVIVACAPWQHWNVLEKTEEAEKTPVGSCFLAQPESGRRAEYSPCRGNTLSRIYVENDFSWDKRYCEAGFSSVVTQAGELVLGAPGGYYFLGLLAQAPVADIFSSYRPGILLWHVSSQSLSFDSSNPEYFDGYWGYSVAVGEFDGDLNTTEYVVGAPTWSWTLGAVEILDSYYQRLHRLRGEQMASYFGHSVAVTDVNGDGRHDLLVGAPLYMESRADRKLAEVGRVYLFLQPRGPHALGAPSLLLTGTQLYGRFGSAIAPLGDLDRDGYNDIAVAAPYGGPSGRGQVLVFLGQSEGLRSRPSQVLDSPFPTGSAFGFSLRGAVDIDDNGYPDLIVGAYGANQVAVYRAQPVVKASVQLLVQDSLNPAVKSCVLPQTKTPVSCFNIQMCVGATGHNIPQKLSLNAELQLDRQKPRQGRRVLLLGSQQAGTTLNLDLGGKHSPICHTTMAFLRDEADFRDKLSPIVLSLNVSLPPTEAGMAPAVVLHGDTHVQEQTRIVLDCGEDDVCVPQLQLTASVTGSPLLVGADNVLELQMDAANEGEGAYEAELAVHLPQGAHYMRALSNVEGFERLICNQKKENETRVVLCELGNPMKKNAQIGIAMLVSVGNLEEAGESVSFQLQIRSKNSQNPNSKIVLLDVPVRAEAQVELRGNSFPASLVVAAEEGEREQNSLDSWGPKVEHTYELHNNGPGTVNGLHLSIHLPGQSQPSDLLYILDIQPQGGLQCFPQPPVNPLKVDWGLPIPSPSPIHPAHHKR
T1 sequence (P08514 891-1039 partner limits assumed): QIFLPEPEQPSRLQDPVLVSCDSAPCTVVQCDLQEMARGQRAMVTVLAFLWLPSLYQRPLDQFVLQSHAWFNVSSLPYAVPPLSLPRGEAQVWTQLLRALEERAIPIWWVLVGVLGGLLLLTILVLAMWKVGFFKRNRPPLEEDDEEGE
T1 sequence (P05106 27-788): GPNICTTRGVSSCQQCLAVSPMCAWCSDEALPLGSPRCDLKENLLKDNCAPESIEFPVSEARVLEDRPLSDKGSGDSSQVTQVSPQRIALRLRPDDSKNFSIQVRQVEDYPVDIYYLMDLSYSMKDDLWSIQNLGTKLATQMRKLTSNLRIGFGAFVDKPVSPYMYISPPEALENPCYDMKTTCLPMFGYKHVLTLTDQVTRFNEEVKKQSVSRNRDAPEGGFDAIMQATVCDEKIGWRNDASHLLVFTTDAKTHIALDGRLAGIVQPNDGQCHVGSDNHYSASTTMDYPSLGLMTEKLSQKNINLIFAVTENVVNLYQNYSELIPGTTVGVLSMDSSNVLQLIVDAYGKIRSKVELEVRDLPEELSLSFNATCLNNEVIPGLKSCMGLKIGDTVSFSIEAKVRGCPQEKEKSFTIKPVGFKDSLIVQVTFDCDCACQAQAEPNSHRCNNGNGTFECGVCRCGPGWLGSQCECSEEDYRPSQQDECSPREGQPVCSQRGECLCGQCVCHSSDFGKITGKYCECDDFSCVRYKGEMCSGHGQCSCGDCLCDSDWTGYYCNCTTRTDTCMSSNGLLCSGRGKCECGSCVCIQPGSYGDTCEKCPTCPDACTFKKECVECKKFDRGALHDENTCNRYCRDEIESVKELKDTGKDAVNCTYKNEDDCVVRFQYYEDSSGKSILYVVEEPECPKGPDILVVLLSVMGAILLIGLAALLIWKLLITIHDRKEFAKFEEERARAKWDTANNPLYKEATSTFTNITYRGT
As to the kind of experiment: GPIIb/IIIa affinity assay (displacement of tritiated reference compound from immobilized receptor). Type of experiment: binding. To be noted: purified human GPIIb/IIIa, 60 nM 3H-labeled reference compound, 1 hour at room temperature. On the procedure:
Affinity assay: In the first step human GPIIb/IIIa purified from human platelets was immobilized on a 96-well solid plate. After 48 hours the plates were washed and the unspecific binding sites were blocked with Roti®-Block. 2. In the next step, the plates were simultaneously incubated with a tritium labeled known GPIIb/IIIa binder (^3H) mixed with increasing concentrations of the novel compounds (inhibitor). The higher the affinity of the inhibitor, the lower the bound fraction of the tritiated known GPIIb/IIIa binder (^3H) was. The fraction of tritiated compound (^3H), which is not displaced by inhibitor, was measured in a microplate scintillation counter.
Purified human glycoprotein IIb/IIIa (20 mM Tris-HCl, 0.1 M NaCl, 0.1% Triton X-100, 1 mM CaCl2, 0.05% NaN3, 50% Glycerol, pH 7.4) was purchased from Enzyme Research Laboratories Inc. (South Bend, Ind.). The GPIIb/IIIa receptor was diluted in phosphate-buffered saline (Dulbecco's Phosphate Buffered Saline (D-PBS (+)) with calcium and magnesium, GIBCO®, Invitrogen) with 0.01% bovine serum albumin (albumin from bovine serum—lyophilized powder, 96%, Sigma).
The GPIIb/IIIa receptor was immobilized 48 hours at least (100 μL per well, 48 to maximum 96 hours) on a 96-well solid plate (Immuno Plate MaxiSorp™, Nunc, Roskilde, Denmark) at 277 K to 280 K and at a concentration of 0.1 μg per well to 1 μg per well. As negative control one row of the plate (n=8) was incubated just with 2% bovine serum albumin (200 μL per well, albumin from bovine serum—lyophilized powder, ≧96%, Sigma, diluted in D-PBS (+)).
After washing three times with the wash buffer (230 μL per well, Dulbecco's Phosphate Buffered Saline (D-PBS (−)) contains no calcium or magnesium, GIBCO®, Invitrogen) residual exposed plastic and unspecific binding sites were blocked by incubating the plate with a special blocking solution (200 μL per well, Roti®-Block, Car Roth GmbH Co KG, Karlsruhe) containing 2% bovine serum albumin (Albumin from bovine serum—lyophilized powder, ≧96%, Sigma) 1 hour at room temperature.
After washing three times with the wash buffer 50 μL of tritiated reference compound (60 nM, ^3H-labeled compound) and 50 μL of novel compound (inhibitor) were simultaneously added to each well and incubated for 1 hour at room temperature. Several concentrations of each novel inhibitor (0.1, 1, 2, 5, 10, 20 50, 100, 200, 500, 1000, 2000, 5000, 10000 and 20000 nM) were investigated. At each concentration of inhibitor a fourfold determination was performed.
The maximum value of tritiated reference compound was determined without addition of inhibitor (n=8). To exclude unspecific binding of ^3H— reference compound wells without glycoprotein receptors were used as negative controls (n=12, identically treated just without GPIIb/IIIa receptors).
After one hour the plate was washed three times with phosphate-buffered saline (200 μL per well, Dulbecco's Phosphate Buffered Saline (D-PBS (+)), GIBCO®, Invitrogen). Following 140 μL of liquid scintillation cocktail (MicroScint™ 40 aqueous, Perkin Elmer) was added to each well. After 15 min at room temperature the plates were measured at the microplate scintillation counter (TopCount NXT v2.13, Perkin Elmer, Packard Instrument Company).
In the first step human glycoprotein IIb/IIIa, which is purified from human platelets, was immobilized on a 96-well solid plate. After 48 hours at least the plates were washed and the unspecific binding sites were blocked with Roti®-Block. In the next step, the plates were simultaneously incubated with a tritium labeled reference compound and the novel small molecule compound (inhibitor). The higher the affinity of the inhibitor, the smaller is the bound fraction of reference compound. The fraction of tritiated reference compound, which is not displaced by inhibitor, was measured at a microplate scintillation counter. The higher the affinity of the inhibitor, the smaller is the bound fraction of tritium-labeled reference compound. […]

`CC(C(=O)NCC(=O)NC[C@H](NC(=O)CNC(=O)C(C)N1CCN(CC(=O)O)CCN(CC(=O)O)CCN(CC(=O)O)CC1)C(=O)NC[C@H](NC(=O)[C@H](CNC(=O)CNC(=O)C(C)N1CCN(CC(=O)O)CCN(CC(=O)O)CCN(CC(=O)O)CC1)NC(=O)CNC(=O)C(C)N1CCN(CC(=O)O)CCN(CC(=O)O)CCN(CC(=O)O)CC1)C(=O)NCCCCc1cccc(C#Cc2cncc([C@H](CC(=O)O)NC(=O)[C@@H]3CCCN(C(=O)CCC4CCNCC4)C3)c2)c1)N1CCN(CC(=O)O)CCN(CC(=O)O)CCN(CC(=O)O)CC1` (stereo partly shown) [Example 8] yielded a 50% inhibitory concentration (IC50) of 21 nM.
